Source: patent US4078079A, “Thiocyano-xanthate miticides” (Stauffer Chemical Company, priority 1976, dated 1978)
Converted amounts (≈) assume the structure as drawn. Like-named read-outs stand apart in the source and are kept apart here.

What was measured:
Aspergillus niger = assay: In Vitro Agar Screening Tests (Example 5); assay type: cell-based; settings: A. niger, potato dextrose, 30° C, read-out: Minimum Inhibitory Concentration
Protocol: (§1) This test measures the bactericidal and fungicidal properties of a compound when in contact with growing bacteria or fungi in an artificial medium. The test is conducted by adding 20 ml. portions of a suitable warm sterile agar solution into 20 × 100 Petri dishes. Then, the test compound, in 0.5% acetone solution, is added to the Petri dishes at levels of 1, 5, 10 and 50 ug/ml. and mixed with the warm mobile agar solution. The treated agar mixture is then allowed to come to room temperature and solidify. Cells of the chosen organism are streaked on the surface of the solidified agar and are then incubated for such lengths of time that untreated samples containing no toxicant show luxurious growth typical of the particular organism. This time varies from 24 hours to one week depending on the particular organism. The fungi are incubated at 30° C and the bacteria are incubated at 37° C. Nutrient agar is used as the medium in this test for the bacteria. Potato dextrose is used as the medium for the fungi. The extent of growth is noted at the end of the incubation period.

Pencillium italicum = assay: In Vitro Agar Screening Tests (Example 5); assay type: cell-based; settings: Penicillium italicum, P. italicum, potato dextrose, 30° C, read-out: Minimum Inhibitory Concentration
Protocol: as §1

Staphylococcus aureus = assay: In Vitro Agar Screening Tests (Example 5); assay type: cell-based; settings: S. aureus, nutrient agar, 37° C, read-out: Minimum Inhibitory Concentration
Protocol: as §1

Escherichia coli = assay: In Vitro Agar Screening Tests (Example 5); assay type: cell-based; settings: E. coli, nutrient agar, 37° C, read-out: Minimum Inhibitory Concentration
Protocol: as §1

[1] = system: Two-spotted Mite (2-SM) Tetranychus urticae (Koch); assay: Plant Dip Assay on Two-Spotted Mite, 2-SM PE; assay type: in vivo; settings: infested Pinto Bean plants dipped 2-3 seconds, mortality after seven days, adult mites
Excerpt: (§2) The Two-spotted Mite (2-SM) Tetranychus urticae (Koch) is subjected to evaluation tests for miticidal activity. Plant Dip Assay on Two-Spotted Mite [Tetranychus urticae (Koch)] Pinto Bean plants (Phaseolus sp.) approximately 10 cm tall, are transplanted into sandy loam soil in 3 inch clay pots and thoroughly infested with two-spotted mites of mixed ages and sexes. Twenty-four hours later the infested plants are inverted and dipped for 2-3 seconds in 50-50 acetone-water solutions of the test chemicals. Treated plants are held in the greenhouse, and seven days later mortality is determined for both the adult mites and the nymphs hatching from eggs which were on the plants at the time of treatment. Test concentrations range from 0.05% down to that at which 50% mortality occurs. The values obtained in this test are found in Table VII under the Columns 2SM-PE and 2SM-Eggs.

[2] = system: Two-spotted Mite (2-SM) Tetranychus urticae (Koch) eggs; assay: Plant Dip Assay on Two-Spotted Mite, 2-SM Eggs; assay type: in vivo; settings: infested Pinto Bean plants dipped 2-3 seconds, mortality after seven days, nymphs hatching from eggs
Excerpt: as §2

[3] = partial control at this concentration

SMILES	MIC (Aspergillus niger) [µg/mL]	MIC (Pencillium italicum) [µg/mL]	MIC (Staphylococcus aureus) [µg/mL]	MIC (Escherichia coli) [µg/mL]	2-SM PE: concentration at which 50% mortality occurs [1]	2-SM Eggs: concentration at which 50% mortality occurs [2]	MIC (Pencillium italicum; [3]) [µg/mL]	MIC (Aspergillus niger; [3]) [µg/mL]	MIC (Staphylococcus aureus; [3]) [µg/mL]	MIC (Escherichia coli; [3]) [µg/mL]
N#CSCSC(=S)OCCOc1ccccc1 [Compound 2]	1 (≈ 3.5 µM)	0.25 (≈ 0.876 µM)	10 (≈ 35 µM)							
COCCOC(=S)SCSC#N [Compound 3]	5 (≈ 22.4 µM)	0.5 (≈ 2.24 µM)	50 (≈ 224 µM)	50 (≈ 224 µM)	.01%	.01%				
CCSCCOC(=S)SCSC#N [Compound 4]	5 (≈ 19.7 µM)	0.5 (≈ 1.97 µM)	5 (≈ 19.7 µM)	50 (≈ 197 µM)						
CCCCOCCOC(=S)SCSC#N [Compound 6]	0.5 (≈ 1.88 µM)	0.5 (≈ 1.88 µM)	5 (≈ 18.8 µM)	50 (≈ 188 µM)	.03%					
CCCCOCCOCCOC(=S)SCSC#N [Compound 7]	5 (≈ 16.2 µM)	5 (≈ 16.2 µM)	5 (≈ 16.2 µM)		.03%					
N#CSCSC(=S)OCCOc1ccccc1Cl [Compound 8]	5 (≈ 15.6 µM)	0.5 (≈ 1.56 µM)	10 (≈ 31.3 µM)		.05%					
N#CSCSC(=S)OCCSc1ccccc1 [Compound 9]	1 (≈ 3.32 µM)	1 (≈ 3.32 µM)	5 (≈ 16.6 µM)		> .05%	> .05%				
Cc1ccc(OCCOC(=S)SCSC#N)cc1 [Compound 10]	1 (≈ 3.34 µM)	0.25 (≈ 0.835 µM)	10 (≈ 33.4 µM)		> .05%	> .05%				
COc1ccc(OCCOC(=S)SCSC#N)cc1 [Compound 11]	1 (≈ 3.17 µM)		5 (≈ 15.9 µM)	25 (≈ 79.3 µM)	.05%	.05%	0.25 (≈ 0.793 µM)			
Cc1ccccc1OCCOC(=S)SCSC#N [Compound 12]	1 (≈ 3.34 µM)		5 (≈ 16.7 µM)	> 50	.01%	.03%	0.125 (≈ 0.417 µM)			
N#CSCSC(=S)OCCOc1ccc(Cl)cc1 [Compound 13]	1 (≈ 3.13 µM)		5 (≈ 15.6 µM)	> 50	> .05%	> .05%	0.5 (≈ 1.56 µM)			
N#CSCSC(=S)OCCSc1ccc(Cl)cc1 [Compound 14]			< 5	> 50	.008%	.003%	1 (≈ 2.98 µM)	1 (≈ 2.98 µM)		
N#CSCSC(=S)OCCSc1ccc2ccccc2c1 [Compound 15]		5 (≈ 14.2 µM)		> 50	> .05%	> .05%		5 (≈ 14.2 µM)	0.25 (≈ 0.711 µM)	
Cc1ccc(SCCOC(=S)SCSC#N)cc1 [Compound 17]			5 (≈ 15.8 µM)		> .05%	> .05%	0.5 (≈ 1.58 µM)	1 (≈ 3.17 µM)		50 (≈ 158 µM)
N#CSCSC(=S)OCCOc1ccc(Cl)cc1Cl [Compound 18]	5 (≈ 14.1 µM)	5 (≈ 14.1 µM)	5 (≈ 14.1 µM)							
